These results are taken from PubChem BioAssay (NCI).

A word on the TGI: it is the concentration giving total growth inhibition. Read a high TGI as lower sensitivity of the cells. What is called GI50 is the concentration at which growth is held to half of that of the control.

What all share (assay): DTP human tumour cell line panel, 48 h
The subject of assay [1] is DLD-1 colon.
The test system of assay [2] is DMS 114 small cell lung.
Assay [3] deals with DMS 273 small cell lung.
Assay [4] concerns LXFL 529 NSCLC.
The test system of assay [5] is RXF-631 renal.
The test system of assay [6] is SNB-78 CNS.
The test system of assay [7] is XF 498 CNS.
In assay [8] the test system is MDA-N.
For assay [9], the system named is HOP-18 NSCLC.

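Cells were grown in 96-well plates and exposed to each compound for 48 hours at five concentrations; endpoints were interpolated linearly between bracketing concentrations, or set to the highest concentration if not reached. Here, GI50 denotes the concentration required for 50% inhibition of growth. TGI: total growth inhibition.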 Bounds are passed on as bounds.

As to `N#CC(C#N)=C1SCC(=O)CS1`, the TGI in assay [1], in assay [2], in assay [3], in assay [4], in assay [5] and in [6] was over 100 µM in each case. In addition, in assay [7], the TGI is over 100 µM.

In [8], `CC(C)CCc1c(Cl)nc(Cl)nc1Cl` yielded a TGI of 21.4 µM. That is a double-digit micromolar value.

Consider `CC1(C)C2C/C(=C\c3ccccc3)C(=O)C1C2` (centres undefined), for which the TGI in [1], in assay [2], in assay [3], in [4], in [5] and in assay [6] was over 100 µM throughout.

Compound `Clc1nc(Cl)c(Cc2ccccc2)c(Cl)n1` displayed a total growth inhibition concentration (TGI) in assay [8] of 12.5 µM.

Turning to `Cn1c(=O)c(C(=O)NC(=O)OCc2ccccc2)cn(CCSCCOC(=O)NCCCCCCNC(=O)OCCSCCn2cc(C(=O)NC(=O)OCc3ccccc3)c(=O)n(C)c2=O)c1=O`, the TGI in assay [1], in assay [2], in [3], in [4], in assay [5] and in assay [6] was over 100 µM each time. This compound also displayed a TGI in [7] of 57.6 µM.

Take `Cc1cccc2c1C/C(=C1\CCc3c(C)cccc31)C2=O`: the TGI in [1], in assay [2], in assay [3], in assay [9], in [4] and in assay [5] was over 100 µM in each case.

In the case of `Cc1cc(=O)oc2cc(OCc3nc4ccccc4c(=O)[nH]3)ccc12`, the total growth inhibition concentration (TGI) in assay [1], in assay [2], in assay [3], in [9], in [4] and in [7] was over 100 µM throughout.

On to `O=C1C(=O)c2ccccc2C(O)=C1CCCCCCCCC1CCCCC1`, for which the TGI in assay [8] worked out at 17.9 µM.

For `CCOc1ccccc1NC(=O)C1=C(C)NC(C)=C(C(=O)Nc2ccccc2OCC)C1c1ccc(NC(C)=O)cc1`, the TGI is over 100 µM in [1]; over 100 µM in assay [2]; over 100 µM in assay [4]; over 100 µM in [6]; 43.5 µM in assay [7].

On to `Cc1cccc2c1C(=O)OC2(C)c1cccc2ccccc12` (centres undefined), for which the TGI was over 100 µM in assay [1]; over 100 µM in [2]; over 100 µM in assay [9]; over 100 µM in [6]; 86 µM in [7].

Regarding `C/C(=C\CC[C@]1(C)OC(C)(C)OC1CC/C(C)=C/CO[Si](c1ccccc1)(c1ccccc1)C(C)(C)C)CC/C=C/CO[Si](C)(C)C(C)(C)C` (some centres undefined), the TGI in [1], in assay [2], in [3] and in assay [6] was over 100 µM each time.

In the case of `CCOC1C=CCCO1` (centres undefined), in [8], the TGI was over 100 µM.

Regarding `c1ccc(SC(CCCCOC2CCCCO2)Sc2ccccc2)cc1` (centres undefined), the TGI in [1], in [2], in assay [3], in assay [4], in assay [6] and in assay [7] was over 100 µM throughout.

With `CC(=O)c1c[nH]cc1CO`, the TGI in assay [8] was over 10 µM.

Compound `C/C=C/C=C\C1OC(O)([C@H](CC)C(=O)NC/C=C/C=C(\C)[C@H](OC)C(C)C2OC(\C=C/C=C/C=C(\C)C(=O)c3c(O)ccn(C)c3=O)[C@H](O)[C@@H]2O)C(O)C(O)C1(C)C` (some centres undefined) returned a TGI in [8] of over 100 µM.

With `Cc1ccc(/C=C2\CCCC\C2=N\O)cc1`, the TGI in assay [1], in assay [3], in assay [9], in [4], in assay [6] and in [7] was over 100 µM each time.

`C[CH2][Sn]([CH2]C)([O]C(=O)c1cccc(F)c1)[O][Sn]([CH2]C)([CH2]C)[O]C(=O)c1cccc(F)c1`: the GI50 is 12.5 µM in assay [1]; 14 µM in [2]; 32 µM in assay [3]; 18.5 µM in assay [9]; 10.4 µM in assay [4]; 16.3 µM in assay [6]. Besides, the GI50 in assay [7] was 16.2 µM. For the same compound, the TGI in assay [1] is 26.1 µM; in assay [2] it was 27.3 µM; in assay [3], over 100 µM; in assay [9], 32.5 µM; in assay [4], 22.4 µM; in assay [6] it was 35.1 µM. In addition, the TGI in [7] was 29.8 µM.

Turning to `CC1=Nn2c(nnc2-c2ccc(N)cc2)NC(C)(C)C1`, the TGI in [1], in [2], in [3], in assay [9], in assay [4] and in assay [5] was over 100 µM each time. For the same compound, the TGI in assay [6] and in assay [7] was over 100 µM in each case.

On to `O=C(/C=C1/NC(=O)CS1)Nc1ccccc1`, for which the TGI in assay [1], in [2], in [3], in assay [9], in assay [4] and in [5] was over 100 µM throughout. In addition, the TGI in assay [6] and in [7] was over 100 µM throughout.

Turning to `O=C1C[C@@H]2CCCC[C@@H]2C12SCCS2`, the TGI in assay [1], in assay [2], in [3], in [4], in [5] and in assay [6] was over 100 µM throughout. Further, the TGI in assay [7] is over 100 µM.

As to `COc1cc(-c2oc3c(OC)c(O)c(OC)c(O)c3c(=O)c2OC)ccc1O`, the TGI in assay [8] is over 100 µM.

On to `NC(CCSC(F)F)C(=O)O` (centres undefined), for which the TGI in [1], in [2], in [3], in [4], in assay [6] and in [7] was over 100 µM each time.

Consider `COc1cc(/C=C2/C(=O)NC(Cc3cc(OC)c(OC)c(C)c3OC)C(=O)N2Cc2ccccc2)c(OC)c(C)c1OC` (centres undefined), for which the TGI was over 100 µM in assay [1]; over 100 µM in assay [2]; over 100 µM in [3]; 80.4 µM in assay [9]; over 100 µM in assay [4]; over 100 µM in [5].

With `COc1ccc2c(c1)CC1c3c(cc4c(c3-2)OCO4)CCN1C` (centres undefined), the TGI in assay [1] is over 100 µM; in assay [2] it was 68.8 µM; in assay [3], over 100 µM; in assay [9], 82.7 µM; in assay [4], over 100 µM; in assay [5] it was 73.6 µM. Besides, the TGI in [6] is over 100 µM; in [7], 74 µM.

Take `O=C(CN1C(=O)c2ccccc2C1=O)C(O)CN1C(=O)c2ccccc2C1=O` (centres undefined): the TGI in assay [8] was over 100 µM.

For `C=CCN=C1NC(=O)C(CC(=O)Nc2ccc(C)cc2)S1` (centres undefined), the concentration for total growth inhibition (TGI) in [1], in assay [2], in assay [3], in [9], in assay [4] and in [5] was over 100 µM in each case. In addition, the TGI in assay [7] is over 100 µM.

Consider `CC12CC3CC(C1)CC(N=[N+]=[N-])(C3)C2`, for which the TGI in [1], in assay [2], in assay [3], in assay [9], in assay [4] and in [5] was over 100 µM throughout. Besides, the TGI in assay [6] and in [7] was over 100 µM throughout.

As to `COc1cc(C(=O)CC2(O)C(=O)Nc3c(Cl)cc(Cl)cc32)ccc1O` (centres undefined), the TGI in assay [1], in [2], in assay [3], in [9], in assay [4] and in [5] was over 100 µM throughout. Moreover, the TGI in [6] and in assay [7] was over 100 µM throughout.

Regarding `Cc1ccc(C2=C(c3ccccc3)C(Br)(c3ccccc3)C(c3ccccc3)=C2c2ccc(C)cc2)cc1`, the TGI in [1], in assay [2], in [9], in [4], in assay [6] and in [7] was over 100 µM in each case.

In assay [8], `C[C@@H]1C[C@@]2(O[C@@H]2C)C(=O)O[C@@H]2CCN3CC=C(COC(=O)[C@]1(C)O)[C@H]23` had a TGI of over 100 µM.

On to `C=C(C)[C@H](O)C(O)CC(C)[C@@H]1CCC23CC12CCC1[C@@]2(C)CCC(OC(C)=O)C(C)(C)C2CC(OC2OC(COC(C)=O)C(O)C(O)C2O)[C@]13C` (some centres undefined), for which the TGI in assay [1] was 11.2 µM; in [2], 10.7 µM; in assay [3], 11.4 µM; in [9] it was 15.2 µM; in assay [4], 10.9 µM; in assay [5] it was 12 µM. In [6], the TGI is 14.2 µM.

In the case of `O=C1CCCC1NC(=O)C(F)(F)F` (centres undefined), the TGI in [1], in [3], in assay [4], in [6] and in assay [7] was over 100 µM in each case.

For the compound `O=P1(O)c2ccccc2Nc2cc(C(F)(F)F)ccc21`, the TGI in [1], in [2], in assay [3], in assay [9], in assay [4] and in assay [8] was over 100 µM in each case. Besides, the TGI in assay [6] and in assay [7] was over 100 µM each time.

In the case of `COC(=O)C(CC(=O)Nc1ccc(Cl)c(Cl)c1)C(=O)C(=O)NC1C2CC3CC(C2)CC1C3` (centres undefined), the TGI in [2], in [3], in assay [9], in [4] and in [6] was over 100 µM each time.

For `O=C1C[C@H]2CC3(CC[C@H]2CN1)OCCO3`, the TGI in assay [1], in assay [3], in assay [4], in assay [6] and in assay [7] was over 100 µM each time.

In the case of `Cc1ccc(N2C(=O)/C(=C/c3ccc(N(CCC#N)CCC#N)cc3C)N=C2c2cc([N+](=O)[O-])ccc2Cl)cc1`, the TGI in assay [1], in [2], in assay [3], in assay [9], in assay [4] and in assay [5] was over 100 µM each time. Besides, the TGI in assay [6] is over 100 µM.

With `CCOC(=O)NC(=O)c1cn(CCN2CCN(C(=O)NCCCCCCNC(=O)N3CCN(CCn4cc(C(=O)NC(=O)OCC)c(=O)n(CCN(CC)CC)c4=O)CC3)CC2)c(=O)n(CCC(CC)CC)c1=O`, the TGI in assay [1], in assay [2], in assay [3], in assay [9], in [4] and in [6] was over 100 µM throughout.

Turning to `C[CH2][Sn]([Cl])([Cl])[CH2]C`, the GI50 in assay [1] is 36 µM; in [2] it was 16.2 µM; in [3], over 91.2 µM; in assay [9] it was 27 µM; in assay [4], 12.5 µM; in assay [6] it was 20.3 µM. Moreover, the TGI in assay [1] is over 100 µM; in assay [2] it was 31.4 µM; in assay [3], over 100 µM; in [9], 55.4 µM; in [4], 25.2 µM; in assay [6], 46.4 µM.

Regarding `COc1cc([C@@H]2OC(=O)C3C2C(=O)O[C@H]3c2cc(OC)c(OC)c(OC)c2)cc(OC)c1OC` (some centres undefined), the TGI in assay [2], in assay [3], in assay [9], in [5], in assay [6] and in [7] was over 100 µM in each case.
